In PubChem BioAssay (NCI):
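1) Cells in 96-well plates. 2) Compound, 48 h, 5 concentrations. 3) Linear interpolation between surrounding doses. 4) Unreached endpoint = highest concentration. GI50 = concentration required for 50% inhibition of growth. TGI marks complete inhibition of growth.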

Assays:
Test in all cases: inhibition of tumour cell growth, NCI panel, 48 h
IGROV1 ovarian = tested on: IGROV1 ovarian
RPMI-8226 leukemia = tested on: RPMI-8226 leukemia
HCC-2998 colon = tested on: HCC-2998 colon
SW-620 colon = tested on: SW-620 colon
OVCAR-4 ovarian = tested on: OVCAR-4 ovarian
NCI-H460 lung = tested on: NCI-H460 lung
SK-OV-3 ovarian = tested on: SK-OV-3 ovarian
SK-MEL-28 melanoma = tested on: SK-MEL-28 melanoma
UO-31 renal = tested on: UO-31 renal
NCI/ADR-RES ovarian = tested on: NCI/ADR-RES ovarian

| Structure (SMILES) | TGI (IGROV1 ovarian) [µM] | TGI (RPMI-8226 leukemia) [µM] | TGI (HCC-2998 colon) [µM] | TGI (SW-620 colon) [µM] | TGI (OVCAR-4 ovarian) [µM] | TGI (NCI-H460 lung) [µM] | TGI (SK-OV-3 ovarian) [µM] | TGI (SK-MEL-28 melanoma) [µM] | TGI (UO-31 renal) [µM] | TGI (NCI/ADR-RES ovarian) [µM] | GI50 (IGROV1 ovarian) [µM] | GI50 (RPMI-8226 leukemia) [µM] | GI50 (HCC-2998 colon) [µM] | GI50 (SW-620 colon) [µM] | GI50 (OVCAR-4 ovarian) [µM] | GI50 (NCI/ADR-RES ovarian) [µM] | GI50 (SK-OV-3 ovarian) [µM] | GI50 (SK-MEL-28 melanoma) [µM] | GI50 (UO-31 renal) [µM] | GI50 (NCI-H460 lung) [µM] |
| --- | --- | --- | --- | --- | --- | --- | --- | --- | --- | --- | --- | --- | --- | --- | --- | --- | --- | --- | --- | --- |
| Cn1c(=O)c2nc(NCCO)cnc2n(C)c1=O | > 100 | > 100 | > 100 | > 100 | > 100 | > 100 | > 100 | > 100 | > 100 |  |  |  |  |  |  |  |  |  |  |  |
| Cc1c(N=NN(C)C)cc[n+]([O-])c1C | > 100 | > 100 | > 100 | > 100 | > 100 | > 100 | > 100 | > 100 | > 100 | > 100 |  |  |  |  |  |  |  |  |  |  |
| CCCCS(=O)CC(CO)NC(=O)/C=C/c1c(C)[nH]c(=O)[nH]c1=O (stereo not drawn) | 35.4 | 59.2 | 30 | 152 | 26.4 | 17.2 | 65.3 | 44.5 | 73.3 | 93.2 |  |  |  |  |  |  |  |  |  |  |
| CC(C)[C@](O)(C(=O)OCC1=CCN2CC[C@@H](O)[C@@H]12)[C@H](C)O | > 375 | > 375 | > 375 | > 237 | > 375 | > 375 | > 375 | > 375 | > 375 | > 375 |  |  |  |  |  |  |  |  |  |  |
| O=C(c1ccccc1)c1nn(-c2ccccc2)c2nc3nc(-c4ccccc4)cc(=O)n3nc12 | > 100 | 50.8 | 60.2 | > 100 | 68.4 |  | > 100 | > 100 | > 100 | 74.5 | 25.6 | 21.4 | 32.6 | 33.1 | 22.9 | 26.2 | 62.2 | 37.8 | 25.7 |  |
| COC(=O)C1C(O)C(C)C(O)OC1C(C)C(O)C(C)/C=C\C=C(/C)C(=O)Nc1c(C)c(OC(C)=O)c2c(c1O)C(=O)C(C)=C1OCOC(/C(C)=C/C(C)=O)=C12 (stereo not drawn) | 26.5 | 28.2 | 26.3 | 20.4 | 23 | 26.5 | 40.2 | 4.96 | 25.1 | 30.5 |  |  |  |  |  |  |  |  |  |  |
| O=C1CSC(C(N=Nc2ccc(Cl)cc2)c2nc3ccccc3[nH]2)=N1 (stereo not drawn) |  | > 100 | > 100 | > 100 | > 100 | > 100 | > 100 | 92.2 | > 100 |  |  |  |  |  |  |  |  |  |  |  |
| C[C@]12CCc3sc(-c4cccc(F)c4)nc3C1=CC[C@@H]1[C@@H]2CC[C@]2(C)C(=O)CC[C@@H]12 | 4.88 | 5.65 | > 100 |  | > 100 | 8.27 | 9.13 | 4.07 | 2.98 | 57.5 | 2.09 | 1.91 | 3.19 |  | 5.51 | 3.41 | 2.91 | 1.53 | 1.61 | 2.78 |
